Experimental data from patent US5955485A, “Use of fused benzothiazoles as neuroprotectants” (Janssen Pharmaceutica, N.V., priority 1995, dated 1999).
“And” between values parts separate entries of the source, which are not always exact repeats. Equal entries are not always repeated. Where two headings read alike, the source gives them in different places.

How the values were obtained:
[1] = test system: C6 glioma cells; experiment: Glutathione depletion-induced cell toxicity in C6 glioma cells (LDH release; protection); settings: for cytotoxicity at 10000 µM: Rattus norvegicus; for cytotoxicity at 10000 µM / IC50: C6 glioma; for IC50: read-out: Protection IC50
Description: Cultures were maintained at 37° C. in an air/5~10% CO2, water saturated atmosphere.
After 8-24 hr, the cultures were switched to culture medium in the absence or presence of the GSH depleting compound glutamate (10 mM).

[2] = test system: Human fibroblasts [strain NS]; experiment: Protection of human fibroblasts against glutathione depletion (survival in cystine/methionine deficient EMEM, 48 hr); assay type: cell-based; settings: Fibroblast, read-out: EC90 (concentration at which more than 90% of the fibroblasts survive 48 hours after treatment)
Description: Human fibroblasts [strain NS] were cultured in cystine/methionine deficient EMEM for 48 hr. In control cultures not receiving any treatment, all cells became necrotic. Cell death was scored by phase contrast microscopy. Table 1 summarizes the EC90 values observed with the compounds of formula (I), i.e. the concentration at which more than 90% of the fibroblasts survive 48 hours after treatment with a compound of formula (I).

[3] = test system: primary neuronal (embryonic hippocampal) cultures; experiment: Survival-rescue of primary embryonic hippocampal cultures in vitE depleted medium (cytoplasmic LDH activity); assay type: cell-based, rat; settings: for EC50: Rattus norvegicus, mean ± SD (number of dose responses), 50% of survival in vitE supplemented medium
Description: Primary embryonic hippocampal cultures were prepared essentially as described previously (Pauwels, P, Van Aschouw, H. P., Peeters, L., Moeremans, M., Leysen, J. E. 1992. Chronic treatment with sabeluzole protects cultured rat brain neurons from the neurotoxic effects of excitatory amino acids. Synapse, 12:271-280). Hippocampal formations of rats at embryonic day 17 were dissected and dissociated in 0.05% trypsin, 0.1 mg/ml DNase I in DMEM (Dulbecco Modified Eagle Medium). Heat-inactivated horse serum (HS) was added to a concentration of 4%, and the cells were centrifuged, washed with DMEM, and resuspended in DMEM/Ham's F12 (3:1) containing 10% HS. The cells were plated at a density of 4×10^5 cells/cm^2 in poly L-lysine (0.001%) pre-coated multiwell-24 plates. On day 1 in culture, the medium was changed to chemically defined CDM-R12 medium (DMEM-HEPES/Ham's F12 (3:1) containing 0.26% bovine serum albumin, 30 nM sodium selenite, 3 nM 3,3',5 triiodo-L-thyronine, 0.35 μM retinol, 0.3 μM retinol acetate, 2.3 μM DL-a-tocopherol, 2.1 μM DL-α-tocopherol acetate, […] linolenic acid, 3.6 μM linoleic acid, 0.125% human transferrin, 20 nM progesterone, 57.7 nM corticosterone, 49 U/l insulin, 0.4 μM biotin, 10 μM L-carnitine, 83 μM D(+)-galactose, 3.3 μM glutathione, 10 μM ethanolamine, 0.1 mM putrescine; Romijn, H. J., van Huizen, F., Wolters, P. S. 1984. Towards an improved serum-free, chemically defined medium for long-term culturing of cerebral cortex tissue. Neurosci. Behav. Rev., 8:301-334), either with (control) or without DL-α-tocopherol (VitE) and DL-α-tocopherol acetate, in the presence or absence of test compound. […] Addition of compounds could rescue the cultures. Culture survival was measured by means of cytoplasmic LDH activity. The EC50 for survival-rescue in vitE depleted cultures refers to the concentration of the compound required to restore culture survival to 50% of the survival seen for the culture grown in vitE supplemented medium. Seven concentrations of each compound were tested in triplicate, the number of independent experiments is indicated in the table, and the mean EC50 -value ± SD was calculated (Table 2).
Primary neuronal cultures depend on the presence of the antioxidant vitE in the culture medium for survival in vitro. When vitE depleted medium is used to grow the cultures, survival drops to ±20% of control. Compounds with antioxidative properties are able to complement the lack of vitE, and as such can when added to the culture medium, rescue vitE devoid cultures. Several derivatives of formula (I) were tested at 10^-7 M and 10^-6 M in the vitE depletion test on primary neuronal cultures, and were all able to rescue survival of vitE depleted cultures to a certain extent (Table 2).

[4] = test system: C6 glioma cells; experiment: GSH content in C6 glioma cell culture; assay type: cell-based; settings: for GSH level: mean ± SEM, n = 3
Text: The GSH content was deduced from a standard curve ranging from 0.2 to 2 nmol commercial GSH per test (ΔA/min plotted versus concentration).

[5] = test system: C6 glioma cells; experiment: Glutathione depletion-induced intracellular peroxides in C6 glioma cells (C-DCDHF fluorescence); assay type: cell-based; settings: for Intracellular peroxides: glutamate 10 mM alone, n = 5 (Table 3); for Intracellular peroxides / Level of intracellular peroxides: mean ± SEM; for Level of intracellular peroxides: 1 μM compound + glutamate 10 mM, n ≥ 3 (Table 5)
Description: Fluorescence measurement of intracellular peroxides: Formation of intracellular peroxides was detected using 6-carboxy-2',7'-dichlorodihydrofluorescin diacetate, di(acetoxymethyl ester) (C-DCDHF, Molecular Probes). C-DCDHF was dissolved in DMSO at a concentration of 10 mM and stored at -70° C. under nitrogen. After exposure of the culture to 10 mM glutamate for 14~20 hr, the cells were loaded with 100 μM fluorophore for one hour at 37° C. Medium was aspirated off, PBS was added to the cells, and plates were read in a Cytofluor II micro plate fluorescence reader (PerSeptive Biosystems).Excitation and emission wavelength were selected with a 485/530 nm filter pair. Fluorescence intensity, expressed in relative fluorescence units (rfu)/μg cellular protein was used as index of intracellular peroxides.

[6] = Plasma levels; assay type: in vivo

SMILES | EC90 [2] | EC50 [3] | IC50 [1] | Level of intracellular peroxides [5] | other results
C[C@]12N[C@H](Cc3ccccc31)c1ccccc12 [MK801, reference compound] |  |  |  |  | prevention of LDH release ([1]; NMDA antagonist, data not shown, in words): not prevented
CCNc1ccc2c(c1)SC1=NCCN12 [Compound 8] | 200000 nM |  |  |  | 
CCC(C)Nc1ccc2c(c1)SC1=NCCN12 (stereo not shown) [Compound 11] | 40000 nM | 224 nM |  |  | 
N[C@@H](CCC(=O)O)C(=O)O [Glutamate, glutamate, reference compound] |  |  |  |  | GSH level ([4]; glutamate 10 mM alone): 277 ± 24 pmol/well; GSH level ([4]; glutamate 10 mM alone, listed as glutamate): 277 pmol/well; reduction in intracellular GSH level versus control ([4]; glutamate 10 mM, 6~7 hr): ~3 fold; cytotoxicity at 10000 µM ([1]; 48 h, read-out: LDH release, % of total): 78 ± 7%; cytotoxicity at 10000 µM ([1]; read-out: cell death): ~78%; increase in toxic intracellular peroxides ([5]; glutamate 10 mM): ~3 fold; Intracellular peroxides [5]: 205 ± 35 rfu/μg protein; Intracellular peroxides ([5]; listed as glutamate): 205 rfu/μg protein
CCCNc1ccc2c(c1)SC1=NCCN12 [Compound 1] | 40000 nM |  |  |  | 
CC(C)Nc1ccc2c(c1)SC1=NCCN12 [Compound 5] | 40000 nM |  |  |  | 
CCCCCCNc1ccc2c(c1)SC1=NCCN12 [Compound 16, N-hexyl-2,3-dihydro-imidazo[2,1-b]benzothiazol-7-amine] | 1600 nM | 41 ± 18 nM | 5 ± 1 nM | 21 ± 1 rfu/μg protein | 
CCCCC(C)Nc1ccc2c(c1)SC1=NCCN12 (stereo not shown) [Compound 13] | 8000 nM | 45 nM | 10 ± 5 nM | 19 ± 1 rfu/μg protein | 
CCCCNc1ccc2c(c1)SC1=NCCN12 [Compound 10] | 200000 nM |  |  |  | 
CNc1ccc2c(c1)SC1=NCCN12 [Compound 2] | 200000 nM |  |  |  | 
CCCN(CCC)c1ccc2c(c1)SC1=NCCN12 [Compound 15] | 40000 nM |  |  |  | 
CC(C)(C)CNc1ccc2c(c1)SC1=NCCN12 [Compound 14] | 8000 nM |  |  |  | 
Cc1cc(NC2CCCC2)c(C(C)C)c2c1N1CCN=C1S2 [Compound 18] |  | 126 nM | 25 ± 14 nM | 19 ± 1 rfu/μg protein | 
c1cc2c(cc1NC1CCCC1)SC1=NCCN12 [Compound 4] | 40000 nM | 177 ± 59 nM | 29 ± 7 nM | 18 ± 2 rfu/μg protein | 
CN(C)c1ccc2c(c1)SC1=NCCN12 [Compound 6] | 40000 nM |  |  |  | 
c1cc2c(cc1NC1C3CC4CC(C3)CC1C4)SC1=NCCN12 (stereo not shown) [Compound 17] |  | 47 ± 19 nM | 12 ± 2 nM | 19 ± 1 rfu/μg protein | 
c1cc2c(cc1NC1CCCCCC1)SC1=NCCN12 [Compound 7, N-cycloheptyl-2,3dihydro-imidazo[2,1-b]benzothiazol-7-amine] | 320 nM | 25 ± 12 nM | 9 nM |  | GSH level relative to solvent control ([4]; 1 μM compound + glutamate 10 mM, in words): about one third of the solvent control level; GSH level ([4]; 1 μM compound + glutamate 10 mM): 242 ± 54 pmol/well; protection from cell death ([1]; 1 μM, glutamate 10 mM, in words): fully protected; complete rescue of primary neuronal cultures grown in VitE depleted medium (concentration) ([3]; VitE depleted medium): 10^-7 M; potency rank in vitE depletion test ([3]; in words): the most potent compound; antioxidative activity relative to vitE ([3]; vitE depletion test, estimated): about 100 times more potent than vitE; plasma levels upon reiterated or chronic administration ([6]; reiterated or chronic administration, in words): progressively increase until a steady state is reached; period of effective plasma levels ([6]; two doses (b.i.d.)): 24 h; IC50 ([5]; individual values of 2 experiments, read-out: Inhibition of intracellular peroxides IC50): 28 nM and 71 nM
CCC(CC)Nc1ccc2c(c1)SC1=NCCN12 [Compound 9] | 40000 nM |  |  |  | 
CCCC(C)Nc1ccc2c(c1)SC1=NCCN12 (stereo not shown) [Compound 12] | 40000 nM | 370 ± 169 nM | 29 ± 14 nM | 24 ± 1 rfu/μg protein | 
c1cc2c(cc1NC1CCCCC1)SC1=NCCN12 [Compound 3] | 40000 nM | 120 ± 71 nM | 18 ± 3 nM | 22 ± 2 rfu/μg protein | 
